Converted amounts (≈) assume the structure as drawn. Read-outs that look alike come from different tables or passages of the source.
Assays:
[1] = Conversion (cyclization) of nopaline / isonopaline to the pyro-derivatives; rate of formation; type: physicochemical; details: for cyclization: above pH 5.5; for reaction rate constant: conversion to pyro-derivative; for first order rate constant, formation of pyrrolidonecarboxylic acid derivative: pH 3.2, 60° C.; for time to completion of conversion to the pyrrolidonecarboxylic acid derivative: pH 3.2, 120° C. (autoclave)
[2] = Stability in bacteria-free tumor extract; type: physicochemical; details: pH 5.3, 10 days, room temperature
[3] = tested on: A. tumefaciens (strain C-58); assay: Growth of A. tumefaciens (turbidity A650, doubling time) with compound as source of carbon and nitrogen; type: cell-based; details: for Doubling Time: 0.0045 g/ml in control medium; for utilization as a source of carbon and nitrogen: preinduced and uninduced bacteria
Method: The minimal medium for bacterial growth was the mineral salt mixture described by Petit and Tempe, hereinbefore cited to which glucose was aded to make the final concentration 0.005 g/ml. The control medium was the mineral salt mixture from which the ammonium sulfate was omitted. In order to test whether they would support bacterial growth either nopaline, isonopaline, or the pyrrolidonecarboxylic acid derivative of nopaline or pyronopaline were added separately to the control medium to make the final concentration 0.0045 g/ml.
A single colony from a plate on minimal medium was adapted to liquid medium that contained nopaline. When visibly turbid, the nopaline liquid culture was innoculated (1% innoculum) into minimal liquid medium and into nopaline liquid medium. When turbid, these two cultures were used as inoculum to test the nopaline, isonopaline and pyronopaline in liquid culture media (20 ml in 125 ml flasks). After innoculation (1%), cultures were agitated on a rotary shaker at 1 cycle per second, and growth was monitored by measurement of the turbidity in a spectrophotometer. The turbidity (A650) readings were plotted on log paper and the doubling time was determined from the logarithmic portion of the growth curve (Table II).
Table II contains the results of experiments to test the ability of A. tumefaciens (strain C-58) to utilize the isomers and derivatives of nopaline as a source of carbon and nitrogen. […] The results are the same for both preinduced and uninduced bacteria. As expected the doubling time in minimal medium is greater than that in either nopaline or pyronopaline, since metabolism by the organism is more complex in the […] medium.

octopine dehydrogenase [4] = assay: Oxidation catalyzed by octopine dehydrogenase; type: biochemical, scallops (Pecten maximus); details: nopaline / isonopaline as substrate
Solubility in H2O = type: physicochemical; details: water, 22° C.
[5] = Reverse reaction (stability) of the pyrrolidonecarboxylic acid derivative of nopaline at 100° C.; type: physicochemical; details: 100° C. in NaOH, Na2CO3 (both at 0.1M), or HCl (3M)
octopine dehydrogenase [6] = details: known substrate specificity; cited from earlier work

Compound | relative rate of reaction of nopaline vs isonopaline ([1]; 22° C. and 100° C.) | time of conversion to the pyro-derivative ([1]; 60° C.) [h] | time for completed conversion to the pyro-derivative ([1]; 100° C., pH 0.0) | time for quantitative conversion to the pyro-derivative ([1]; 100° C., pH 3.2) | time of conversion to the pyro-derivative ([1]; 121° C.) | cyclization [1] | reaction rate constant [1] [s⁻¹] | first order rate constant, formation of pyrrolidonecarboxylic acid derivative [1] | time to completion of conversion to the pyrrolidonecarboxylic acid derivative [1] [min] | conversion to the pyro-derivatives ([1]; pH above approximately 5.5, 48 hours at 100° C.) | change of concentration in tumor extract [2] | Doubling Time ([3]; Preinduced Innoculum) | Doubling Time ([3]; Uninduced Innoculum) | utilization as a source of carbon and nitrogen [3] | oxidation catalyzed by octopine dehydrogenase (octopine dehydrogenase [4]) | solubility (Solubility in H2O) [mg/mL] | reverse reaction [5] | oxidation catalyzed by octopine dehydrogenase (octopine dehydrogenase [6]) | time for completed conversion to the pyro-derivative ([1]; 60° C., pH 3.2)
N=C(N)NCCC[C@H](N[C@H](CCC(=O)O)C(=O)O)C(=O)O [Nopaline, N-(4-((aminoiminomethyl)amino-)-1S-carboxybutyl)-2R-2-pentanedioic acid] | faster reaction | 18 to 24 | approximately 1.0 hours | approximately 2 hours | approximately 30 minutes | neither nopaline nor isonopaline is demonstrable | 4.6e-07 | 4.6×10^-7 S^-1 | 30 | too slow to be readily measured | did not change | 2.8 h | 2.8 h | metabolized | catalyzed the oxidation of nopaline | 6.3 (≈ 20.7 mM) | – | – | –
N=C(N)NCCC[C@@H](C(=O)O)N1C(=O)CC[C@@H]1C(=O)O [Pyronopaline, N-(4-((aminoiminomethyl)amino)-1S-carboxybutyl)-2-pyrrolidone-5R-carboxylic acid] | – | – | – | – | – | – | – | – | – | – | did not change | 3.1 h | 3.1 h | metabolized | – | 34.5 (≈ 121 mM) | No significant reverse reaction | – | –
C[C@H](N[C@@H](CCCNC(=N)N)C(=O)O)C(=O)O [L-allooctopine] | – | – | – | – | – | – | – | – | – | – | – | – | – | – | – | – | – | not of L-allooctopine | –
C[C@@H](N[C@@H](CCCNC(=N)N)C(=O)O)C(=O)O [D-octopine] | – | – | – | – | – | – | – | – | – | – | – | – | – | – | – | – | – | catalyzes the oxidation of D-octopine | –
N=C(N)NCCC[C@H](N[C@@H](CCC(=O)O)C(=O)O)C(=O)O [Isonopaline] | – | – | – | – | – | neither nopaline nor isonopaline is demonstrable | 3.5e-08 | 0.35×10^-7 S^-1 | 30 | – | – | no growth | no growth | completely ineffective | not that of isonopaline | 21.3 (≈ 70 mM) | – | – | approximately 100 hours

From patent US5081289A, “Synthesis and isolation of nopaline and its analogues” (The University of Alabama in Birmingham, priority 1989, dated 1992)
